Measured values taken from the supplement of paper PMC10307832.

Key:
Assay in all cases: relative viability (nuclei count vs DMSO), 5 days (fraction); higher = more cells survive
201T = system: 201T
How it was run: (§1)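 One day after seeding in 1536-well plates, lung cancer cell lines were dosed by pin tool. Dosing was either single-drug or a fixed anchor-drug dose plus five library-drug doses (not always all listed) in √10 steps. After 5 days, nuclei were stained in one fix-and-stain step and counted on 4× images, and relative viability is the nuclei count of treated wells over that of vehicle wells, given as the median of duplicate plates.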

ABC-1 = system: ABC-1
How it was run: as §1

BEN = system: BEN
How it was run: as §1

CAL-12T = system: CAL-12T
How it was run: as §1

COR-L 105 = system: COR-L 105
How it was run: as §1

EKVX = system: EKVX
How it was run: as §1

HARA = system: HARA
How it was run: as §1

HCC-366 = system: HCC-366
How it was run: as §1

LOU-NH91 = system: LOU-NH91
How it was run: as §1

NCI-H1437 = system: NCI-H1437
How it was run: as §1

NCI-H1650 = system: NCI-H1650
How it was run: as §1

NCI-H1666 = system: NCI-H1666
How it was run: as §1

NCI-H2009 = system: NCI-H2009
How it was run: as §1

NCI-H3122 = system: NCI-H3122
How it was run: as §1

NCI-H441 = system: NCI-H441
How it was run: as §1

NCI-H460 = system: NCI-H460
How it was run: as §1

NCI-H661 = system: NCI-H661
How it was run: as §1

NCI-H727 = system: NCI-H727
How it was run: as §1

PC-14 = system: PC-14
How it was run: as §1

## O=c1cc(N2CCOCC2)oc2c(-c3cccc4c3sc3ccccc34)cccc12 + CC(C)C[C@H](NC(=O)[C@H](Cc1ccccc1)NC(=O)c1cnccn1)B(O)O [Bortezomib] (partner 0.002 µM)
201T; first compound 0.01 µM
  relative viability: 1.07
201T; first compound 0.03162 µM
  relative viability: 1.09
201T; first compound 0.1 µM
  relative viability: 0.957
201T; first compound 0.3162 µM
  relative viability: 1.08
201T; first compound 1 µM
  relative viability: 1.1
ABC-1; first compound 0.01 µM
  relative viability: 0.331
ABC-1; first compound 0.03162 µM
  relative viability: 0.347
ABC-1; first compound 0.1 µM
  relative viability: 0.336
ABC-1; first compound 0.3162 µM
  relative viability: 0.261
ABC-1; first compound 1 µM
  relative viability: 0.332
BEN; first compound 0.01 µM
  relative viability: 0.867
BEN; first compound 0.03162 µM
  relative viability: 0.949
BEN; first compound 0.1 µM
  relative viability: 0.673
BEN; first compound 0.3162 µM
  relative viability: 0.793
BEN; first compound 1 µM
  relative viability: 0.712
CAL-12T; first compound 0.01 µM
  relative viability: 0.857
CAL-12T; first compound 0.1 µM
  relative viability: 0.985
CAL-12T; first compound 0.3162 µM
  relative viability: 1.01
CAL-12T; first compound 1 µM
  relative viability: 0.925
COR-L 105; first compound 0.01 µM
  relative viability: 0.793
COR-L 105; first compound 0.03162 µM
  relative viability: 0.793
COR-L 105; first compound 0.1 µM
  relative viability: 0.769
COR-L 105; first compound 0.3162 µM
  relative viability: 0.895
COR-L 105; first compound 1 µM
  relative viability: 0.807
EKVX; first compound 0.01 µM
  relative viability: 1.03
EKVX; first compound 0.03162 µM
  relative viability: 1.09
EKVX; first compound 0.1 µM
  relative viability: 1.02
EKVX; first compound 0.3162 µM
  relative viability: 1.11
EKVX; first compound 1 µM
  relative viability: 1.05
HARA; first compound 0.01 µM
  relative viability: 1.16
HARA; first compound 0.03162 µM
  relative viability: 1.17
HARA; first compound 0.1 µM
  relative viability: 1.19
HARA; first compound 0.3162 µM
  relative viability: 1.1
HARA; first compound 1 µM
  relative viability: 1.1
HCC-366; first compound 0.01 µM
  relative viability: 1.09
HCC-366; first compound 0.03162 µM
  relative viability: 1.09
HCC-366; first compound 0.1 µM
  relative viability: 1.03
HCC-366; first compound 0.3162 µM
  relative viability: 1.06
HCC-366; first compound 1 µM
  relative viability: 1.04
LOU-NH91; first compound 0.01 µM
  relative viability: 0.448
LOU-NH91; first compound 0.03162 µM
  relative viability: 0.487
LOU-NH91; first compound 0.1 µM
  relative viability: 0.538
LOU-NH91; first compound 0.3162 µM
  relative viability: 0.548
LOU-NH91; first compound 1 µM
  relative viability: 0.457
NCI-H1437; first compound 0.01 µM
  relative viability: 0.493
NCI-H1437; first compound 0.03162 µM
  relative viability: 0.515
NCI-H1437; first compound 0.1 µM
  relative viability: 0.477
NCI-H1437; first compound 0.3162 µM
  relative viability: 0.527
NCI-H1437; first compound 1 µM
  relative viability: 0.57
NCI-H1650; first compound 0.03162 µM
  relative viability: 0.243
NCI-H1650; first compound 0.1 µM
  relative viability: 0.193
NCI-H1650; first compound 0.3162 µM
  relative viability: 0.219
NCI-H1650; first compound 1 µM
  relative viability: 0.175
NCI-H1666; first compound 0.01 µM
  relative viability: 0.678
NCI-H1666; first compound 0.03162 µM
  relative viability: 0.804
NCI-H1666; first compound 0.1 µM
  relative viability: 0.909
NCI-H1666; first compound 0.3162 µM
  relative viability: 0.703
NCI-H1666; first compound 1 µM
  relative viability: 0.751
NCI-H2009; first compound 0.01 µM
  relative viability: 1.03
NCI-H2009; first compound 0.03162 µM
  relative viability: 1.01
NCI-H2009; first compound 0.1 µM
  relative viability: 0.89
NCI-H2009; first compound 0.3162 µM
  relative viability: 0.967
NCI-H2009; first compound 1 µM
  relative viability: 1.01
NCI-H3122; first compound 0.01 µM
  relative viability: 1.02
NCI-H3122; first compound 0.03162 µM
  relative viability: 0.907
NCI-H3122; first compound 0.1 µM
  relative viability: 1.02
NCI-H3122; first compound 0.3162 µM
  relative viability: 0.947
NCI-H3122; first compound 1 µM
  relative viability: 1.02
NCI-H441; first compound 0.01 µM
  relative viability: 0.443
NCI-H441; first compound 0.03162 µM
  relative viability: 0.565
NCI-H441; first compound 0.1 µM
  relative viability: 0.487
NCI-H441; first compound 0.3162 µM
  relative viability: 0.301
NCI-H441; first compound 1 µM
  relative viability: 0.684
NCI-H460; first compound 0.01 µM
  relative viability: 1.01
NCI-H460; first compound 0.03162 µM
  relative viability: 1.13
NCI-H460; first compound 0.1 µM
  relative viability: 1.3
NCI-H460; first compound 0.3162 µM
  relative viability: 1.06
NCI-H460; first compound 1 µM
  relative viability: 1.07
NCI-H661; first compound 0.01 µM
  relative viability: 0.681
NCI-H661; first compound 0.03162 µM
  relative viability: 0.89
NCI-H661; first compound 0.1 µM
  relative viability: 0.752
NCI-H661; first compound 0.3162 µM
  relative viability: 0.714
NCI-H661; first compound 1 µM
  relative viability: 0.756
NCI-H727; first compound 0.01 µM
  relative viability: 0.961
NCI-H727; first compound 0.03162 µM
  relative viability: 0.937
NCI-H727; first compound 0.1 µM
  relative viability: 0.764
NCI-H727; first compound 0.3162 µM
  relative viability: 0.84
NCI-H727; first compound 1 µM
  relative viability: 0.79
PC-14; first compound 0.01 µM
  relative viability: 0.954
PC-14; first compound 0.03162 µM
  relative viability: 0.763
PC-14; first compound 0.1 µM
  relative viability: 0.868
PC-14; first compound 0.3162 µM
  relative viability: 0.772
PC-14; first compound 1 µM
  relative viability: 0.864
